Results reported in publication PMC6451745, “Development and dosimetry of ^203Pb/^212Pb-labelled PSMA ligands: bringing “the lead” into PSMA-targeted alpha therapy?” (European Journal of Nuclear Medicine and Molecular Imaging, 2019).

Tests used:
[1] = system: patients with castration-resistant metastasized prostate cancer; assay: Dosimetry extrapolated from ^203Pb-CA012 to ^212Pb-CA012
Description: Images were loaded into the QDOSE dosimetry software suite (ABX-CRO, Dresden) and coregistered. […] These ROIs were used to determine time–activity curves (TAC) for each organ, tumours and the total body. The first time-point (before voiding) of the uncorrected geometric mean images was used to calibrate the ROI counts in relation to the injected activity. The red marrow TAC was calculated from venous blood (six samples per patient) using established model assumptions [10, 11].
Biexponential curve fitting was applied to all organ TACs (with the exception of a few tumours and glands which had to be fitted monoexponentially). The accumulated activity was integrated assuming a linear increase from time 0 to the first measured time-point, numerically from the first to the last measured time-point using trapezoidal approximations and from the last measured time-point to infinity using the fit function. The activity in the remainder of the body was calculated by subtracting the activity of all source organs from that of the total body.
The residence times in the kidneys, liver, spleen, urinary bladder contents, red marrow and remainder of the body were exported for dose calculations in OLINDA 1.1, using the organ masses of the adult phantom [12].
OLINDA calculations were performed for all nuclides individually. […] Tumour and salivary gland volumes were measured individually based on CT segmentation and their absorbed doses were approximated using a power function interpolating the spherical model estimates [15].

C4-2 cells = assay: Determination of specific internalization ratio; type: cell-based
Description: In vitro and in vivo experiments were performed using the PSMA-positive C4-2 cell line, a subline of the LNCaP (lymph node carcinoma of the prostate) cell line (CRL-3314; American Type Culture Collection). C4-2 cells were cultivated in RPMI-1640 (PAN Biotech) supplemented with 10% fetal calf serum and stable glutamine (PAN Biotech). Cells were grown at 37 °C and incubated in humidified air equilibrated with 5% CO2.
For determination of the specific internalization ratio, 24-well plates were incubated for 20 min with 0.1% poly-L-lysine in PBS at room temperature and washed once with PBS. In the next step, 1 ml RPMI containing 1 × 10^5 C4-2 cells was added to each well and incubated overnight. The conditions during the experiment for each compound were: incubation at 37 °C or 4 °C with or without receptor blocking via 2-(phosphonomethyl)pentanedioic acid (2-PMPA; Axxora) at a final concentration of 500 μM. The cells were then incubated with 250 μl of a 30 nM solution of ^203Pb-labelled compound. The plates were incubated either for 45 min in a water bath at 37 °C or on ice at 4 °C. The cells were then washed three times with 1 ml ice-cold PBS and incubated with 0.5 ml glycine (50 mM in HCl, pH 2.8) for 5 min. After an additional washing step with 1 ml ice-cold PBS, the cells were lysed with 0.5 ml 0.3 M NaOH and collected, and the radioactivity was measured with a gamma counter for 1 min. The specific cellular uptake was determined as the percentage of initially added radioactivity bound per 10^6 cells (%IA/10^6 cells) by subtraction of the respective uptake under blocking conditions. All experiments were performed in triplicate.

[2] = projected from therapeutic activity of 100 MBq
[3] = therapeutic ^212Pb incl. daughter nuclides, extrapolated from ^203Pb, RBE 5 for alpha, OLINDA male adult phantom

Q: Which results are given for `NC(=O)CN1CCN(CC(N)=O)CCN(CC(=O)NC[C@H]2CC[C@H](C(=O)N[C@@H](Cc3ccc4ccccc4c3)C(=O)NCCCC[C@H](NC(=O)N[C@@H](CCC(=O)O)C(=O)O)C(=O)O)CC2)CCN(CC(N)=O)CC1.[212Pb+2]` [^212Pb-CA012]?
A: cumulative dose limited by the kidneys (dose-limiting organ) ([1]; preliminary approximation): 400–600 MBq; Equivalent dose, Liver [1, 2]: 0.7 SvRBE5; Equivalent dose, other organs [1, 2]: 0.2 SvRBE5; Tissue equivalent dose, Kidneys [1, 2]: 4.9 SvRBE5; Tissue equivalent dose, Red marrow ([1]; projected from therapeutic activity of 100 MBq, instant decay of daughter nuclides assumed): 0.6 SvRBE5; Effective dose [1, 3]: 415.1 mSv RBE5/100 Mbq; Effective dose equivalent [1, 3]: 748.9 mSv RBE5/100 Mbq; Equivalent dose, Adrenals [1, 3]: 193.1 mSv RBE5/100 Mbq; Equivalent dose, Brain [1, 3]: 190.0 mSv RBE5/100 Mbq; Equivalent dose, Breasts [1, 3]: 190.0 mSv RBE5/100 Mbq; Equivalent dose, Gallbladder [1, 3]: 192.9 mSv RBE5/100 Mbq; Equivalent dose, Heart [1, 3]: 191.3 mSv RBE5/100 Mbq; Equivalent dose, Kidneys [1, 3]: 4906.6 mSv RBE5/100 Mbq; Equivalent dose, Liver [1, 3]: 703.3 mSv RBE5/100 Mbq; Equivalent dose, Lower large intestine [1, 3]: 191.3 mSv RBE5/100 Mbq; Equivalent dose, Lungs [1, 3]: 190.9 mSv RBE5/100 Mbq; Equivalent dose, Muscle [1, 3]: 190.7 mSv RBE5/100 Mbq; Equivalent dose, Osteogenic cells [1, 3]: 3796.4 mSv RBE5/100 Mbq; Equivalent dose, Pancreas [1, 3]: 192.9 mSv RBE5/100 Mbq; Equivalent dose, Red marrow [1, 3]: 615.1 mSv RBE5/100 Mbq; Equivalent dose, Skin [1, 3]: 189.8 mSv RBE5/100 Mbq; Equivalent dose, Small intestine [1, 3]: 191.8 mSv RBE5/100 Mbq; Equivalent dose, Spleen [1, 3]: 1606.7 mSv RBE5/100 Mbq; Equivalent dose, Stomach [1, 3]: 191.8 mSv RBE5/100 Mbq; Equivalent dose, Testes [1, 3]: 190.4 mSv RBE5/100 Mbq; Equivalent dose, Thymus [1, 3]: 190.7 mSv RBE5/100 Mbq; Equivalent dose, Thyroid [1, 3]: 190.5 mSv RBE5/100 Mbq; Equivalent dose, Total body [1, 3]: 237.8 mSv RBE5/100 Mbq; Equivalent dose, Upper large intestine [1, 3]: 191.8 mSv RBE5/100 Mbq; Equivalent dose, Urinary bladder [1, 3]: 200.2 mSv RBE5/100 Mbq

Q: Which results are given for `NC(=O)CN1CCN(CC(N)=O)CCN(CC(N)=O)C(Cc2ccc(NC(=S)NCC3CCC(C(=O)NC(Cc4ccc5ccccc5c4)C(=O)NCCCC[C@H](NC(=O)N[C@@H](CCC(=O)O)C(=O)O)C(=O)O)CC3)cc2)CN(CC(N)=O)CC1.[203Pb+2]` (some centres unmarked) [^203Pb-CA009]?
A: specific ligand-induced internalization (C4-2 cells): approximately 27 %ID/10^6 cells; Specific lysate (specific internalization) (C4-2 cells; ^203Pb-labelled compound 30 nM, 45 min, 2-PMPA blocking subtracted, mean ± SD n = 3): 27.4 ± 2.4 %IA/10^6 cells
